In the Biogen ADME set (Fang et al. 2023):
In brackets after ≈: the same amount, converted by molar mass.

Conditions: for aqueous solubility: pH 6.8

SMILES	intrinsic clearance, human liver microsomes [mL/min/kg]	intrinsic clearance, rat liver microsomes [mL/min/kg]	aqueous solubility [µg/mL]	MDR1-MDCK efflux ratio	fraction unbound, human plasma
O=C(Nc1cccc(N2CCNC2=O)c1)C1NCC12CCCC2 (configuration not stated)	≤ 4.74	–	–	22	0.523
CC(=O)c1c(C)c2cnc(Nc3ccc(N4CCNCC4)cn3)nc2n(C2CCCC2)c1=O	12.8	34.7	46.2 (≈ 103 µM)	63.1	–
CC1(C)CC(=O)c2c(C(F)(F)F)nn(-c3ccc(C(N)=O)c(N[C@H]4CC[C@H](OC(=O)CN)CC4)c3)c2C1	204	469	–	–	–
COc1cc([C@@H]2c3cc4c(cc3[C@H](O)[C@H]3COC(=O)[C@@H]23)OCO4)cc(OC)c1OC	44.5	5860	–	0.444	–
Cc1cc(Nc2ccccn2)cc(C2CCCN(CC(=O)Nc3ncc(C)s3)C2)n1 (configuration not stated)	59.6	956	65.5 (≈ 155 µM)	36.3	–
O=c1[nH]nc(CCCN2CCOCC2)n1-c1cccc(Cl)c1	≤ 4.74	28.1	40.4 (≈ 125 µM)	25.6	–
Cc1cc(C(=O)NC2CCN(C(=O)c3cc(C)sc3C)CC2)no1	9.77	93.7	61.2 (≈ 176 µM)	1.56	–
CC(C)COc1ccc(C(C)(C)NCc2nnc(C3CCC3)o2)cc1	127	3070	–	–	–
CC(=O)N1CC[C@H]2O[C@H]3c4ccc(O[C@@H]5O[C@H](CO)[C@@H](O[C@@H]6O[C@H](CO)[C@H](O)[C@H](O)[C@H]6O)[C@H](O)[C@H]5O)cc4OC(C)(C)[C@@H]3C[C@H]2C1	≤ 4.74	≤ 10.7	–	0.675	–
CN(Cc1c(F)cccc1Cl)C(=O)C1(C#N)CCCC1	111	1250	35.2 (≈ 120 µM)	–	–
Cc1ccc(F)cc1C(=O)N1CCc2c(nc(-c3ccccn3)nc2N(C)C)C1	8.74	61.6	25.7 (≈ 65.8 µM)	–	–
O=c1c(-n2ccnn2)c[nH]n1-c1cc(N2CCOCC2)ncn1	≤ 4.74	45.8	30.7 (≈ 97.7 µM)	1.76	–
O=C(Nc1ccccc1)Nc1ccc(OC(F)(F)F)cc1	–	–	0.8 (≈ 2.7 µM)	0.328	–
Cn1cc(C(=O)N2CCC(c3cc(C(F)(F)F)c4c(n3)CCNC4=O)CC2)ccc1=O	≤ 4.74	≤ 10.7	53 (≈ 122 µM)	0.752	–
COc1ccc(C)cc1-n1ccc(C(=O)Nc2c3c(nn2C)CCC3)n1	46.5	255	33.2 (≈ 94.5 µM)	1.45	–
Cc1ccccc1-n1nc(C(C)(C)C)cc1N	6.55	≤ 10.7	44.8 (≈ 195 µM)	0.607	–
Cn1cnnc1NC(=O)c1cnn2c1CCCC2	≤ 4.74	≤ 10.7	–	3.95	–
CCN1CCC(Nc2nc(C)cc(C)c2C#N)CC1	6.73	2490	43.4 (≈ 168 µM)	1.24	–
Cc1cnn(CC(=O)NCCCn2cc(Cl)cn2)c1	≤ 4.74	47.2	–	2.34	–
Cc1cc(C)n(C(=O)CCCC(=O)n2nc(C)cc2C)n1	609	2340	–	–	–
CCCC1(CNC(=O)Cn2ccc(=O)cc2)CCC1	≤ 4.74	14.6	–	14.3	–
CN1CCN(c2ccc3nc(-c4cc(C(C)(C)C)c(OCCCC(=O)NCCCN=[N+]=[N-])c(C(C)(C)C)c4)[nH]c3c2)CC1	177	212	–	–	–
COc1cc2c(cc1OC)[C@@H]1Cc3ccc(OC)c(OC)c3CN1CC2	5.78	85.5	–	0.542	–
CNC(=O)N1CCc2nc3ccc(Cl)cn3c(=O)c2C1	≤ 4.74	≤ 10.7	50.5 (≈ 173 µM)	6.16	–
Cc1ccc(S(=O)(=O)Nc2ccc3c(c2)c2c(n3S(=O)(=O)c3ccc(C)cc3)CCC2)cc1	230	1490	–	–	–
CCc1cc2c(cc1N1CCC(N3CCOCC3)CC1)C(C)(C)c1[nH]c3cc(C#N)ccc3c1C2=O	35.8	17.8	11.7 (≈ 24.2 µM)	11.8	–
CC(=O)c1ccc2c(c1)CCN(CC1CCC3(CC1)OCCO3)CC2	≤ 4.74	229	–	0.556	–
O=C(Nc1ccc(C(=O)O)c(O)c1)c1ccc(NC(=O)c2cccs2)cc1	≤ 4.74	≤ 10.7	54.3 (≈ 142 µM)	0.572	–
Cc1ccc(=O)n(CC2(O)CCN(Cc3cccs3)CC2)n1	≤ 4.74	161	–	4.22	–
COc1cc(F)c(NCC(=O)Nc2ccc(C)cc2)cc1OC	31.7	269	47.6 (≈ 150 µM)	0.669	–

Further lines, results first:

intrinsic clearance, human liver microsomes [mL/min/kg]	intrinsic clearance, rat liver microsomes [mL/min/kg]	aqueous solubility [µg/mL]	MDR1-MDCK efflux ratio	fraction unbound, human plasma	SMILES
31.1	320	21.4 (≈ 47.7 µM)	–	–	C=CCN(C)CCCCCCOc1ccc(C(=O)c2ccc(Br)cc2)c(F)c1
–	–	1 (≈ 3.43 µM)	–	–	CCn1nnc2cc(C(=O)Nc3cccc(C#N)c3)ccc21
66	316	–	0.622	–	CC(=O)c1cc(Br)cc(F)c1OCc1ccccn1
6.01	55.5	–	2.6	–	CC(C)n1cnnc1-c1cccc(N2Cc3ccc(Br)cc3C2=O)n1
8.27	518	53.4 (≈ 140 µM)	4.09	–	CC(C)c1nnc(-c2ccc(-c3ccccc3)nc2)n1-c1cccc2nonc12
15	367	17 (≈ 63.6 µM)	0.599	–	O[C@@H]1CO[C@H]2C[C@@H]1Nc1c(-c3ccccc3)cccc12
55.6	391	–	–	–	Cc1nc(CCNc2cnccc2C#N)cs1
117	689	4.67 (≈ 18.8 µM)	0.608	–	Cn1ncc2cc(-c3ccnc4[nH]ccc34)ccc21
26.9	219	16.5 (≈ 60.7 µM)	0.458	–	Clc1ccc(Cc2nc(-c3cccnc3)no2)cc1
51.7	518	–	6.03	–	O=C(Nc1cn(CCOCC(F)(F)F)nc1-c1ccccn1)c1coc(-c2cn[nH]c2)n1
9.61	722	–	8.25	–	CC(=O)NCCCC(=O)Nc1ccc(Oc2ccccc2Cl)cc1
8.01	195	47.9 (≈ 154 µM)	–	–	Cc1nc2ccc(C(=O)NCCCc3ccc(F)cc3)cc2[nH]1
–	–	0.69 (≈ 2.13 µM)	0.456	–	CCOC(=O)c1ccc(OCC(=O)c2c[nH]c3ccccc23)cc1
≤ 4.74	50.5	54.5 (≈ 137 µM)	0.459	–	O=C(O)c1cc(/N=N/c2ccc(S(=O)(=O)Nc3ccccn3)cc2)ccc1O
392	1520	61.6 (≈ 164 µM)	21.7	–	CN(Cc1ccccc1N1CCCC1)C(=O)c1cccc(Cn2ccnc2)c1
12.2	302	–	–	–	Cc1cnccc1NC(=O)COc1ccccc1C#N
14.9	90.4	9.2 (≈ 32.4 µM)	0.516	–	O=C(NC1CCCCCC1)c1ccc(-c2cnco2)cc1
8.11	80.5	54.1 (≈ 176 µM)	0.762	–	CC(C)NC(=O)c1cc(-c2ccccc2)n(-c2ccccn2)n1
194	604	–	–	–	O=C(Nc1ccc(C2CCCCC2)cc1)c1ccc(S(=O)(=O)NCc2cccnc2)cc1
29	75.1	8.73 (≈ 25.1 µM)	1.08	–	Cc1cc(C(=O)Nc2cccc(-c3cnco3)c2)c2c(C)nn(C)c2n1
≤ 4.74	19.5	10.4 (≈ 21.2 µM)	7.69	–	Cc1noc(-c2ccc(-c3ccc(CC(=O)O)cc3)cc2)c1NC(=O)O[C@H](C)c1ccccc1Cl
24.7	694	14 (≈ 47.9 µM)	0.889	–	OC[C@@H](c1ccccc1)n1cc(CCc2ccccc2)nn1
31.1	119	12.7 (≈ 43.1 µM)	0.59	–	N#Cc1ccccc1OCc1csc(-c2ncccn2)n1
≤ 4.74	253	–	–	–	COc1cc(C)cc(OC)c1-c1ccc(OCC(N)=O)cc1
33.2	861	–	0.797	–	COc1ccc(CC2CN3CCN(C(=O)OCc4ccccc4)CC3CO2)cc1 (configuration not stated)
